Reference: ChEMBL document CHEMBL3769388, “Optimization of a Dicarboxylic Series for in Vivo Inhibition of Citrate Transport by the Solute Carrier 13 (SLC13) Family” (J Med Chem, 2016)

Key:
[1] = target: T1, Na(+)/citrate cotransporter (Homo sapiens, UniProt Q86YT5); test: Inhibition of NaCT in human hepatocytes assessed as [14C]-citrate uptake after 30 mins by scintillation counting method; format: cell-based, Hepatocyte
[2] = target: T1, Na(+)/citrate cotransporter; test: Inhibition of NaCT (unknown origin) expressed in HEK293 cells assessed as inhibition of [14C]citrate uptake by microbeta plate reader analysis; format: cell-based
[3] = Volume of distribution at steady state in Wistar Han rat at 1 mg/kg, iv by LC-MS/MS analysis; format: ADME, organism-based; details: in vivo, read-out: Vdss
[4] = AUC(0 to t) in Wistar Han rat at 5 mg/kg, po by LC-MS/MS analysis; format: ADME, organism-based; details: in vivo
[5] = Total plasma clearance in Wistar Han rat at 1 mg/kg, iv by LC-MS/MS analysis; format: ADME, organism-based
[6] = Fraction unbound in Wistar Han rat by equilibrium dialysis method; format: ADME
[7] = Renal clearance in Wistar Han rat at 1 mg/kg, iv by LC-MS/MS analysis; format: ADME, organism-based, Kidney; details: in vivo
[8] = Half life in Wistar Han rat at 1 mg/kg, iv by LC-MS/MS analysis; format: ADME, organism-based; details: in vivo
[9] = Clearance in human hepatocytes assessed per 10^6 cells; format: ADME, cell-based, Hepatocyte; details: read-out: CLH
[10] = Passive permeability in MDCK cells; format: ADME, cell-based, Canis lupus familiaris; details: dog
[11] = target: T2, Solute carrier family 13 member 2 (Homo sapiens, UniProt Q13183); test: Inhibition of NaDC1 (unknown origin) expressed in HEK293 cells assessed as inhibition of [14C]citrate uptake by microbeta plate reader analysis; format: cell-based; details: read-out: IC50
T2 sequence (Q13183 whole entry): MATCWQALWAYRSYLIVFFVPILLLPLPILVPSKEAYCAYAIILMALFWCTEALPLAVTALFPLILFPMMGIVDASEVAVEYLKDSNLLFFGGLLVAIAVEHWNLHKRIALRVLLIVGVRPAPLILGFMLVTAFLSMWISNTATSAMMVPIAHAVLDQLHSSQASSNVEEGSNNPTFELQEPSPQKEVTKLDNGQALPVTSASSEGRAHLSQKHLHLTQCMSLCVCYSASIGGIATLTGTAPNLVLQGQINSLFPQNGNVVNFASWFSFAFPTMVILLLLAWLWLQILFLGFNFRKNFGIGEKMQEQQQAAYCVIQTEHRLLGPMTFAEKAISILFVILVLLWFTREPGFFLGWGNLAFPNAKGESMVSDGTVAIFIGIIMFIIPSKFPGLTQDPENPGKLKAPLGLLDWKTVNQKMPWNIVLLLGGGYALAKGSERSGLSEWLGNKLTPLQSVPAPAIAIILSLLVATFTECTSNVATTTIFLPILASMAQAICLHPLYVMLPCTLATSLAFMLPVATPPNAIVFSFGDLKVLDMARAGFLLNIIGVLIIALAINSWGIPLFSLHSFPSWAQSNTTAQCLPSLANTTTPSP

T1 sequence (Q86YT5 whole entry): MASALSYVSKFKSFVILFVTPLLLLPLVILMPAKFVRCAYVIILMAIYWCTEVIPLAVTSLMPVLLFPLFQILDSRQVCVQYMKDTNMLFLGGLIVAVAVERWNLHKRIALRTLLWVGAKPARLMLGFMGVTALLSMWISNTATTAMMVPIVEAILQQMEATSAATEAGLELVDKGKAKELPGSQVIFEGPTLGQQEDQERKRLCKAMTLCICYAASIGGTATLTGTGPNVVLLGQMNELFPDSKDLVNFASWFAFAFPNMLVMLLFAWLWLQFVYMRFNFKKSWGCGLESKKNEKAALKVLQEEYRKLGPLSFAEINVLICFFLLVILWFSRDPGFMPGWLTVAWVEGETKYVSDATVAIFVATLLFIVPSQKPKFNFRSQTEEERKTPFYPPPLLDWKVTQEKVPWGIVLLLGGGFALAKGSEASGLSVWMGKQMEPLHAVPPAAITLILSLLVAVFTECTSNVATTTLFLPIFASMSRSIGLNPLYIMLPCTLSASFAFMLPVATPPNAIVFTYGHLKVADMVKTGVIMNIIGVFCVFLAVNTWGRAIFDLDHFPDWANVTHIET

CCOc1ncccc1CC[C@](O)(CC(=O)O)C(=O)O
IC50 [1]: > 30000 nM
IC50 ([2]; read-out: IC50): > 25000 nM

CCOc1ncc(C)cc1CCC(O)(CC(=O)O)C(=O)O (racemic)
IC50 ([2]; read-out: IC50): 190 nM

COc1ncc(C)cc1CCC(O)(CC(=O)O)C(=O)O (racemic)
IC50 ([2]; read-out: IC50): 650 nM
IC50 ([2]; read-out: pIC50 (converted)): 316 nM

O=C(O)CC(O)(CCc1ccccc1)C(=O)O (racemic)
IC50 ([2]; read-out: IC50): > 17000 nM

CCOc1ncccc1CC[C@@](O)(CC(=O)O)C(=O)O
Vd [3]: 0.13 L/kg
AUC(0-t) [4]: 2650 ng·h/mL
clearance [5]: 6.7 mL/min/kg
IC50 [1]: 330 nM
fraction unbound [6]: 0.086
IC50 ([2]; read-out: IC50): 110 nM
CL renal [7]: 1.8 mL/min/kg
half-life [8]: 0.9 h

CC(C)(C)c1ccc(CC[C@@](O)(CC(=O)O)C(=O)O)cc1
Vd [3]: 0.24 L/kg
AUC(0-t) [4]: 2570 ng·h/mL
hepatocyte CLint [9]: < 6 µL/min/1e6 cells
clearance [5]: 4.5 mL/min/kg
fraction unbound [6]: 0.054
Papp [10]: 1 ×10⁻⁶ cm/s
CL renal [7]: 0.5 mL/min/kg
half-life [8]: 1 h
IC50 [11]: > 100000 nM

CC(C)Oc1ncccc1CCC(O)(CC(=O)O)C(=O)O (racemic)
IC50 ([2]; read-out: IC50): 330 nM

CCOc1ncccc1CCC(O)(CC(=O)O)C(=O)O (racemic)
IC50 ([2]; read-out: IC50): 110 nM

COc1ncccc1CCC(O)(CC(=O)O)C(=O)O (racemic)
IC50 ([2]; read-out: IC50): 3370 nM

COc1ccc(C)cc1CCC(O)(CC(=O)O)C(=O)O (racemic)
IC50 ([2]; read-out: IC50): 1650 nM

CC(C)(C)c1ccc(CCC(O)(CC(=O)O)C(=O)O)cc1 (racemic)
Vd [3]: 0.45 L/kg
AUC(0-t) [4]: 1850 ng·h/mL
clearance [5]: 8.5 mL/min/kg
fraction unbound [6]: 0.073
CL renal [7]: 1.9 mL/min/kg
half-life [8]: 1.2 h

COc1ncc(C)cc1CC[C@](O)(CC(=O)O)C(=O)O
Vd [3]: 0.2 L/kg
AUC(0-t) [4]: 499 ng·h/mL
clearance [5]: 9.9 mL/min/kg
fraction unbound [6]: 0.058
IC50 ([2]; read-out: IC50): > 18000 nM
CL renal [7]: 2.8 mL/min/kg
half-life [8]: 1 h
